Data on 17 molecules can be found in patent publication US11173151B2, “Substituted triazole derivatives and uses thereof” (BAYER AKTIENGESELLSCHAFT, priority 2017, dated 2021).

For one experiment, the target named is T1, human V2 receptor (Homo sapiens, UniProt P30518).
T1 construct: expressed in transfected cells; host or cells: CHO K1 (ATCC) expressing firefly luciferase under a CRE-responsive promoter
Description: Cellular in vitro assay for determining vasopressin receptor activity, V2 receptor cell line (CHO, CRE-luciferase). The note with it: CHO cell line transfected with human V2 receptor; [Arg8]-vasopressin at EC50 concentration; read-out: IC50 hV2. The class given is cell-based.

A further experiment deals with T2, human V1a receptor (Homo sapiens, UniProt P37288).
T2 construct: expressed in transfected cells; host or cells: CHO K1 (ATCC), also stably transfected with a modified aequorin
Nature of the experiment: Cellular in vitro assay for determining vasopressin receptor activity, V1a receptor cell line (CHO, aequorin luminescence). The class given is cell-based. The note with it: for IC50: CHO cell line transfected with human V1a receptor, [Arg]-vasopressin at EC50 concentration, read-out: IC50 hV1a; for ratio IC50 hV2/hV1a: selectivity ratio IC50 hV2 / IC50 hV1a. The method in brief:
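Antagonism is measured in stable CHO K1 transfectants coexpressing the Gαq-coupled receptor and a calcium-sensitive aequorin photoprotein. Agonist challenge uses [Arg]-vasopressin at EC50 after a 10-minute compound exposure; IC50 values come from the luminescence signal.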

Molecules are shown by their SMILES.

The IC50 is the point on the concentration scale where inhibition reaches its midpoint.

T2 sequence (P37288 whole entry): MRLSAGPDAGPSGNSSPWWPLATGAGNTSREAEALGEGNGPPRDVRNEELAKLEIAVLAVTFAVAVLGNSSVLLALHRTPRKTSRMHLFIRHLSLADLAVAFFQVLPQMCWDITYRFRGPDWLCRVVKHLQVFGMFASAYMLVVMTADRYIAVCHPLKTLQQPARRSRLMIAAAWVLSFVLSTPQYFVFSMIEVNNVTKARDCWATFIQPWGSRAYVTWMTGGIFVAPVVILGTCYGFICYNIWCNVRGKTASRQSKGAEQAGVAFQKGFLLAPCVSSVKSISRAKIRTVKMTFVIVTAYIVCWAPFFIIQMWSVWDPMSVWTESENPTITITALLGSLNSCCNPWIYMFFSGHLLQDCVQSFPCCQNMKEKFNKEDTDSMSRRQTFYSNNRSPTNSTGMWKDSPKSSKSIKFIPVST
T1 sequence (P30518 whole entry): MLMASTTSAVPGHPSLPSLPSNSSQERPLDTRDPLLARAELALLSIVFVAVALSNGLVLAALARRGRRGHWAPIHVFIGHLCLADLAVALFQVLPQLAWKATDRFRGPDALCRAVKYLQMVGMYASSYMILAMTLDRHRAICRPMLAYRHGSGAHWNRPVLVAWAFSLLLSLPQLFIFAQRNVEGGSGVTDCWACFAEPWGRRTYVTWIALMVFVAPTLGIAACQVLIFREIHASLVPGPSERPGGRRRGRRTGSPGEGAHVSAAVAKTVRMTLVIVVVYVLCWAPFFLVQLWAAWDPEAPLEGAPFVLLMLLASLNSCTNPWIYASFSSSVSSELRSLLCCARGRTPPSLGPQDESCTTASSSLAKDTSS

`O=C(c1cccc(Cl)c1-n1cnc(Cn2nc(-c3ccc(Cl)cc3)n(C[C@@H](O)C(F)(F)F)c2=O)n1)N1CCC(F)(F)C1` [Example 398, 2-[(1-{2-Chloro-6-[(3,3-difluoropyrrolidin-1-yl)carbonyl]phenyl}-1H-1,2,4-triazol-3-yl)methyl]-5-(4-chlorophenyl)-4-[(2R)-3,3,3-trifluoro-2-hydroxypropyl]-2,4-dihydro-3H-1,2,4-triazol-3-one]: on human V2 receptor, the half-inhibitory concentration (IC50) stood at 22000 nM. Also, on human V1a receptor, the half-inhibitory concentration (IC50) stood at 440 nM and the “ratio IC50 hV2/hV1a” value stood at 50.0.

Turning to `O=C(NC1CC(F)(F)C1)c1cccc(Cl)c1-n1cnc(Cn2nc(-c3ccc(Cl)cc3)n(C[C@@H](O)C(F)(F)F)c2=O)n1` [Example 399, 3-Chloro-2-[3-({3-(4-chlorophenyl)-5-oxo-4-[(2R)-3,3,3-trifluoro-2-hydroxypropyl]-4,5-dihydro-1H-1,2,4-triazol-1-yl}methyl)-1H-1,2,4-triazol-1-yl]-N-(3,3-difluorocyclobutyl)benzamide], the 50% inhibitory concentration (IC50) at human V2 receptor was 3150 nM; on human V1a receptor, 190 nM. Further, the “ratio IC50 hV2/hV1a” value at human V1a receptor was found to be 16.6.

For `O=C(c1cccc(Cl)c1-n1cnc(Cn2nc(-c3ccc(Cl)cc3)n(C[C@@H](O)C(F)(F)F)c2=O)n1)N1CCCCC1` [Example 401, 5-(4-Chlorophenyl)-2-({1-[2-chloro-6-(piperidin-1-ylcarbonyl)phenyl]-1H-1,2,4-triazol-3-yl}methyl)-4-[(2R)-3,3,3-trifluoro-2-hydroxypropyl]-2,4-dihydro-3H-1,2,4-triazol-3-one], the IC50 on human V2 receptor was 9950 nM; at human V1a receptor it was 240 nM. Moreover, the “ratio IC50 hV2/hV1a” value on human V1a receptor is on record as 41.5.

Consider `O=C(c1cccc(Cl)c1-n1cnc(Cn2nc(-c3ccc(Cl)cc3)n(C[C@@H](O)C(F)(F)F)c2=O)n1)N1CCOCC1` [Example 402, 2-({1-[2-Chloro-6-(morpholin-4-ylcarbonyl)phenyl]-1H-1,2,4-triazol-3-yl}methyl)-5-(4-chlorophenyl)-4-[(2R)-3,3,3-trifluoro-2-hydroxypropyl]-2,4-dihydro-3H-1,2,4-triazol-3-one], for which, on human V2 receptor, the concentration for half-maximal inhibition (IC50) turned out to be 32000 nM. At human V1a receptor, the concentration for half-maximal inhibition (IC50) came out at 435 nM and the “ratio IC50 hV2/hV1a” value is on record as 73.6.

As to `O=C(NC1(C(F)(F)F)CC1)c1cccc(Cl)c1-n1cnc(Cn2nc(-c3ccc(Cl)cc3)n(C[C@@H](O)C(F)(F)F)c2=O)n1` [Example 403, 3-Chloro-2-[3-({3-(4-chlorophenyl)-5-oxo-4-[(2R)-3,3,3-trifluoro-2-hydroxypropyl]-4,5-dihydro-1H-1,2,4-triazol-1-yl}methyl)-1H-1,2,4-triazol-1-yl]-N-[1-(trifluoromethyl)cyclopropyl]benzamide], the IC50 on human V2 receptor was found to be 5800 nM. On human V1a receptor, the 50% inhibitory concentration (IC50) worked out at 74.5 nM and the “ratio IC50 hV2/hV1a” value was 77.9.

In the case of `O=C(c1cccc(Cl)c1-n1cnc(Cn2nc(-c3ccc(Cl)cc3)n(C[C@@H](O)C(F)(F)F)c2=O)n1)N1CCC[C@@H]1C(F)(F)F` [Example 404, 5-(4-Chlorophenyl)-2-{[1-(2-chloro-6-{[(2R)-2-(trifluoromethyl)pyrrolidin-1-yl]carbonyl}phenyl)-1H-1,2,4-triazol-3-yl]methyl}-4-[(2R)-3,3,3-trifluoro-2-hydroxypropyl]-2,4-dihydro-3H-1,2,4-triazol-3-one], the IC50 at human V2 receptor came to 11500 nM; on human V1a receptor it was 315 nM. Besides, at human V1a receptor, the “ratio IC50 hV2/hV1a” value was 36.5.

For `CC1(NC(=O)c2cccc(Cl)c2-n2cnc(Cn3nc(-c4ccc(Cl)cc4)n(C[C@@H](O)C(F)(F)F)c3=O)n2)CC1` [Example 405, 3-Chloro-2-[3-({3-(4-chlorophenyl)-5-oxo-4-[(2R)-3,3,3-trifluoro-2-hydroxypropyl]-4,5-dihydro-1H-1,2,4-triazol-1-yl}methyl)-1H-1,2,4-triazol-1-yl]-N-(1-methylcyclopropyl)benzamide], the IC50 on human V2 receptor was found to be 10100 nM. In addition, on human V1a receptor, the IC50 amounted to 16.5 nM and the “ratio IC50 hV2/hV1a” value is on record as 615.2.

As to `CC1(C)COCCN1C(=O)c1cccc(Cl)c1-n1cnc(Cn2nc(-c3ccc(Cl)cc3)n(C[C@@H](O)C(F)(F)F)c2=O)n1` [Example 407, 2-[(1-{2-Chloro-6-[(3,3-dimethylmorpholin-4-yl)carbonyl]phenyl}-1H-1,2,4-triazol-3-yl)methyl]-5-(4-chlorophenyl)-4-[(2R)-3,3,3-trifluoro-2-hydroxypropyl]-2,4-dihydro-3H-1,2,4-triazol-3-one], the IC50 at human V2 receptor turned out to be 32000 nM. For the same molecule, at human V1a receptor, the 50% inhibitory concentration (IC50) worked out at 425 nM and the “ratio IC50 hV2/hV1a” value amounted to 75.3.

Take `NC(=O)[C@H]1CC(F)(F)CN1C(=O)c1cccc(Cl)c1-n1cnc(Cn2nc(-c3ccc(Cl)cc3)n(C[C@@H](O)C(F)(F)F)c2=O)n1` [Example 409, 1-{3-Chloro-2-[3-({3-(4-chlorophenyl)-5-oxo-4-[(2R)-3,3,3-trifluoro-2-hydroxypropyl]-4,5-dihydro-1H-1,2,4-triazol-1-yl}methyl)-1H-1,2,4-triazol-1-yl]benzoyl}-4,4-difluoro-D-prolinamide]: the half-maximal inhibitory concentration (IC50) on human V2 receptor worked out at 32000 nM. In addition, at human V1a receptor, the IC50 was 180 nM and the “ratio IC50 hV2/hV1a” value was determined as 177.8.

As for `O=C(NCCC(F)(F)F)c1cccc(Cl)c1-n1cnc(Cn2nc(-c3ccc(Cl)cc3)n(C[C@@H](O)C(F)(F)F)c2=O)n1` [Example 410, 3-Chloro-2-[3-({3-(4-chlorophenyl)-5-oxo-4-[(2R)-3,3,3-trifluoro-2-hydroxypropyl]-4,5-dihydro-1H-1,2,4-triazol-1-yl}methyl)-1H-1,2,4-triazol-1-yl]-N-(3,3,3-trifluoropropyl)benzamide], the IC50 at human V2 receptor was found to be 3300 nM. At human V1a receptor, the concentration for half-maximal inhibition (IC50) was found to be 325 nM and the “ratio IC50 hV2/hV1a” value amounted to 10.2.

As for `O=C(c1cccc(Cl)c1-n1cnc(Cn2nc(-c3ccc(Cl)cc3)n(C[C@H](O)C(F)(F)F)c2=O)n1)N1CC2(COC2)C1` [Example 411, 2-({1-[2-Chloro-6-(2-oxa-6-azaspiro[3.3]hept-6-ylcarbonyl)phenyl]-1H-1,2,4-triazol-3-yl}methyl)-5-(4-chlorophenyl)-4-[(2S)-3,3,3-trifluoro-2-hydroxypropyl]-2,4-dihydro-3H-1,2,4-triazol-3-one], the half-inhibitory concentration (IC50) at human V2 receptor is 4850 nM. Besides, at human V1a receptor, the half-maximal inhibitory concentration (IC50) turned out to be 365 nM and the “ratio IC50 hV2/hV1a” value came to 13.3.

Turning to `O=C(NCC(F)(F)F)c1cccc(C(F)(F)F)c1-n1cnc(Cn2nc(-c3ccc(Cl)cc3)n(C[C@H](O)C(F)(F)F)c2=O)n1` [Example 412, 2-[3-({3-(4-Chlorophenyl)-5-oxo-4-[(2S)-3,3,3-trifluoro-2-hydroxypropyl]-4,5-dihydro-1H-1,2,4-triazol-1-yl}methyl)-1H-1,2,4-triazol-1-yl]-N-(2,2,2-trifluoroethyl)-3-(trifluoromethyl)benzamide], the IC50 at human V2 receptor came out at 2000 nM; on human V1a receptor, 140 nM. In addition, the “ratio IC50 hV2/hV1a” value at human V1a receptor is recorded as 14.3.

For the molecule `CC1(NC(=O)c2cccc(C(F)(F)F)c2-n2cnc(Cn3nc(-c4ccc(Cl)cc4)n(C[C@H](O)C(F)(F)F)c3=O)n2)CC1` [Example 414, 2-[3-({3-(4-Chlorophenyl)-5-oxo-4-[(2S)-3,3,3-trifluoro-2-hydroxypropyl]-4,5-dihydro-1H-1,2,4-triazol-1-yl}methyl)-1H-1,2,4-triazol-1-yl]-N-(1-methylcyclopropyl)-3-(trifluoromethyl)benzamide], the IC50 on human V2 receptor amounted to 3600 nM. Moreover, on human V1a receptor, the IC50 is 44.5 nM and the “ratio IC50 hV2/hV1a” value was determined as 80.9.

For the molecule `O=C(NC1CC1)c1cccc(C(F)(F)F)c1-n1cnc(Cn2nc(-c3ccc(Cl)cc3)n(C[C@H](O)C(F)(F)F)c2=O)n1` [Example 415, 2-[3-({3-(4-Chlorophenyl)-5-oxo-4-[(2S)-3,3,3-trifluoro-2-hydroxypropyl]-4,5-dihydro-1H-1,2,4-triazol-1-yl}methyl)-1H-1,2,4-triazol-1-yl]-N-cyclopropyl-3-(trifluoromethyl)benzamide], the IC50 at human V2 receptor amounted to 1500 nM. On human V1a receptor, the IC50 amounted to 53.5 nM and the “ratio IC50 hV2/hV1a” value came out at 28.0.

As for `COC[C@H]1CCCN1C(=O)c1cccc(C(F)(F)F)c1-n1cnc(Cn2nc(-c3ccc(Cl)cc3)n(C[C@H](O)C(F)(F)F)c2=O)n1` [Example 416, 5-(4-Chlorophenyl)-2-({1-[2-{[(2R)-2-(methoxymethyl)pyrrolidin-1-yl]carbonyl}-6-(trifluoromethyl)phenyl]-1H-1,2,4-triazol-3-yl}methyl)-4-[(2S)-3,3,3-trifluoro-2-hydroxypropyl]-2,4-dihydro-3H-1,2,4-triazol-3-one], on human V2 receptor, the IC50 was determined as 5850 nM. For the same molecule, on human V1a receptor, the 50% inhibitory concentration (IC50) is 51.5 nM and the “ratio IC50 hV2/hV1a” value was determined as 113.6.

Regarding `O=C(NC1CC(F)(F)C1)c1cccc(C(F)(F)F)c1-n1cnc(Cn2nc(-c3ccc(Cl)cc3)n(C[C@H](O)C(F)(F)F)c2=O)n1` [Example 417, 2-[3-({3-(4-Chlorophenyl)-5-oxo-4-[(2S)-3,3,3-trifluoro-2-hydroxypropyl]-4,5-dihydro-1H-1,2,4-triazol-1-yl}methyl)-1H-1,2,4-triazol-1-yl]-N-(3,3-difluorocyclobutyl)-3-(trifluoromethyl)benzamide], the IC50 on human V2 receptor came out at 315 nM. Also, on human V1a receptor, the IC50 worked out at 37.5 nM and the “ratio IC50 hV2/hV1a” value stood at 8.4.

Take `O=C(c1cccc(C(F)(F)F)c1-n1cnc(Cn2nc(-c3ccc(Cl)cc3)n(C[C@H](O)C(F)(F)F)c2=O)n1)N1CCS(=O)(=O)CC1` [Example 418, 5-(4-Chlorophenyl)-2-[(1-{2-[(1,1-dioxidothiomorpholin-4-yl)carbonyl]-6-(trifluoromethyl)phenyl}-1H-1,2,4-triazol-3-yl)methyl]-4-[(2S)-3,3,3-trifluoro-2-hydroxypropyl]-2,4-dihydro-3H-1,2,4-triazol-3-one]: at human V2 receptor, the half-maximal inhibitory concentration (IC50) was 32000 nM. In addition, on human V1a receptor, the IC50 is 635 nM and the “ratio IC50 hV2/hV1a” value was 50.4.
